The source of these data is ChEMBL document CHEMBL3272324, “Studies on antitumor agents, 2. Syntheses and antitumor activities of 1-(tetrahydro-2-furanyl)-5-fluorouracil and 1,3-bis(tetrahydro-2-furanyl)-5-fluorouracil” (J Med Chem, 1978).

Series [1] concerns YOSHIDA. The experiment in a line: Antitumor activity against rat Yoshida cells allografted in Donryu rat assessed as tumor inhibition at 0.45 mmol/kg, po qd for 7 days measured on day 10 relative to control. The format is functional. The following applies: read-out: TGI.
For series [2], the system named is YOSHIDA. The experiment in a line: Antitumor activity against rat Yoshida cells allografted in Donryu rat assessed as tumor inhibition at 0.15 mmol/kg, po qd for 7 days measured on day 10 relative to control. It is filed as functional. The following applies: read-out: TGI.
Series [3] is described as follows: Antitumor activity against mouse Ehrlich carcinoma cells allografted in ddY mouse assessed as tumor inhibition at 0.15 mmol/kg, po qd for 7 days measured on day 10 relative to control. It is filed as functional. The note with it: read-out: TGI.
The subject of series [4] is Sarcoma-180. The experiment in a line: Antitumor activity against mouse Sarcoma 180 cells allografted in ICR mouse assessed as tumor inhibition at 0.15 mmol/kg, po qd for 7 days measured on day 10 relative to control. The format is functional. The note with it: Sarcoma-180, po, read-out: TGI.
The subject of series [5] is W256. Briefly: Antitumor activity against rat Walker 256 cells allografted in Wistar rat assessed as tumor inhibition at 0.45 mmol/kg, po qd for 7 days measured on day 10 relative to control. It is filed as functional. The note with it: read-out: TGI.
Series [6] is described as follows: Antitumor activity against mouse Ehrlich carcinoma cells allografted in ddY mouse assessed as tumor inhibition at 0.45 mmol/kg, po qd for 7 days measured on day 10 relative to control. The following applies: read-out: TGI. It is filed as functional.
Series [7] can be described thus: Antitumor activity against rat AH-130 cells allografted in Donryu rat assessed as tumor inhibition at 0.45 mmol/kg, po qd for 7 days measured on day 10 relative to control. It is filed as functional. The note with it: read-out: TGI.
The test system of series [8] is W256. The experiment in a line: Antitumor activity against rat Walker 256 cells allografted in Wistar rat assessed as tumor inhibition at 0.15 mmol/kg, po qd for 7 days measured on day 10 relative to control. The format is functional. The following applies: read-out: TGI.
Series [9] can be described thus: Toxicity in po dosed ddY mouse after 3 days by up and down method. The format is organism-based. The following applies: in vivo.
The nature of series [10]: Antitumor activity against rat AH-130 cells allografted in Donryu rat assessed as tumor inhibition at 0.15 mmol/kg, po qd for 7 days measured on day 10 relative to control. The format is functional. The following applies: read-out: TGI.
Series [11] concerns Sarcoma-180. Briefly: Antitumor activity against mouse Sarcoma 180 cells allografted in ICR mouse assessed as tumor inhibition at 0.45 mmol/kg, po qd for 7 days measured on day 10 relative to control. The following applies: Sarcoma-180, po, read-out: TGI. It is filed as functional.
Series [12] in a line: Toxicity in po dosed ddY mouse after 3 weeks by up and down method. The following applies: in vivo. The format is organism-based.
For series [13], the system named is Rattus norvegicus. The experiment in a line: Toxicity in Donryu rat allografted with rat AH-130 cells assessed as body weight change at 0.15 mmol/kg, po administered for 7 days measured on day 10 relative to control. The note with it: in vivo, 168 h. It is filed as organism-based.
The subject of series [14] is Rattus norvegicus. Briefly: Toxicity in Donryu rat allografted with rat AH-130 cells assessed as body weight change at 0.45 mmol/kg, po administered for 7 days measured on day 10 relative to control. The following applies: in vivo, 168 h. The format is organism-based.
For series [15], the system named is W256. Briefly: Antitumor activity against rat Walker 256 cells allografted in Wistar rat assessed as tumor inhibition at 0.08 mmol/kg, po qd for 7 days measured on day 10 relative to control. It is filed as functional. The note with it: read-out: TGI.
Series [16] deals with Sarcoma-180. The experiment in a line: Antitumor activity against mouse Sarcoma 180 cells allografted in ICR mouse assessed as tumor inhibition at 0.08 mmol/kg, po qd for 7 days measured on day 10 relative to control. It is filed as functional. The note with it: Sarcoma-180, po, read-out: TGI.
A short description of series [17]: Antitumor activity against mouse Ehrlich carcinoma cells allografted in ddY mouse assessed as tumor inhibition at 0.08 mmol/kg, po qd for 7 days measured on day 10 relative to control. The format is functional. The note with it: read-out: TGI.
Series [18] relates to Rattus norvegicus. The experiment in a line: Toxicity in Donryu rat allografted with rat AH-130 cells assessed as body weight change at 0.08 mmol/kg, po administered for 7 days measured on day 10 relative to control. It is filed as organism-based. The following applies: in vivo, 168 h.
The nature of series [19]: Antitumor activity against rat AH-130 cells allografted in Donryu rat assessed as tumor inhibition at 0.08 mmol/kg, po qd for 7 days measured on day 10 relative to control. It is filed as functional. The note with it: read-out: TGI.
For series [20], the system named is YOSHIDA. The experiment in a line: Antitumor activity against rat Yoshida cells allografted in Donryu rat assessed as tumor inhibition at 0.08 mmol/kg, po qd for 7 days measured on day 10 relative to control. It is filed as functional. The following applies: read-out: TGI.

`O=c1c(F)cn(C2CCCO2)c(=O)n1C1CCCO1` (stereo not drawn): the inhibition in vivo at 450 µmol/kg in the series with YOSHIDA [1] came to 58%; in the series on W256 [5], 37%; in series [6], 61%; in series [7] it was 44%; with Sarcoma-180 [11], 56%. Also, the inhibition in vivo at 150 µmol/kg in the series on YOSHIDA [2] came to 43%; in series [3], 50%; with Sarcoma-180 [4] it was 45%; in the series with W256 [8], 27%; in series [10], 32%. In addition, the LD50 at 72 h in series [9] worked out at 2900 mg/kg. The compound also returned a 50% lethal dose (LD50) at 504 h in [12] of 2660 mg/kg.

In the case of `O=c1[nH]cc(F)c(=O)n1C1CCCO1` (stereo not drawn), the Activity in the series with Rattus norvegicus [13] is 47.3 g; in the series with Rattus norvegicus [14] it was 21.7 g. The inhibition in vivo at 450 µmol/kg in series [7] was 80%. Also, in series [10], the inhibition in vivo at 150 µmol/kg is 45%.

In the case of `O=c1[nH]cc(F)c(=O)[nH]1` [FLUOROURACIL], the inhibition in vivo at 80 µmol/kg in the series on W256 [15] came out at 24%; in the series with Sarcoma-180 [16] it was 48%; in [17], 42%; in [19], 33%; in the series with YOSHIDA [20], 41%. Besides, the Activity in the series on Rattus norvegicus [18] is listed as 42.1 g.

For `O=c1[nH]c(=O)n(C2CCCO2)cc1F` (stereo not drawn) [TEGAFUR], the inhibition in vivo at 450 µmol/kg was 52% in the series with YOSHIDA [1]; 31% in the series with W256 [5]; 54% in series [6]; 35% in series [7]; 37% in the series with Sarcoma-180 [11]. For the same compound, the inhibition in vivo at 150 µmol/kg with YOSHIDA [2] was 32%; in series [3], 38%; in the series with Sarcoma-180 [4], 38%; with W256 [8], 27%; in series [10], 22%. In the series on Rattus norvegicus [14], the Activity was found to be 40.9 g.

The term LD50 denotes the dose at which mortality reaches 50%. A high value points to a less toxic substance.
